Measured values from US9962383B2, “Compounds, compositions and methods of agelastatin alkaloids” (Massachusetts Institute of Technology, priority 2013, dated 2018).

How the values were obtained:
HeLa = experiment: 48-hour IC50 by SRB, HeLa cervical carcinoma cells; format: cell-based, human
Protocol: (§1) Cells were grown in media supplemented with fetal bovine serum (FBS) and antibiotics (100 μg/mL penicillin and 100 U/mL streptomycin). […] Cells were incubated at 37° C. in a 5% CO2, 95% humidity atmosphere.
Adherent cells (HeLa, A549, BT549, and IMR90) were added into 96-well plates (5,000 cells/well for HeLa cell line; 2,000 cells/well for A549, BT549, and IMR90 cell lines) in 100 μL media and were allowed to adhere for 2-3 hours. Compounds were solubilized in DMSO as 100× stocks, added directly to the cells (100 μL final volume), and tested over a range of concentrations (1 nM to 10 μM) in triplicate (1% DMSO final) on a half-log scale. DMSO and cell-free wells served as the live and dead control, respectively. […] Briefly, media was removed from the plate, and cells were fixed by the addition of 100 μL cold 10% trichloroacetic acid in water. After incubating at 4° C. for 1 h, the plates were washed in water and allowed to dry. Sulforhordamine B was added as a 0.057% solution in 1% acetic acid (100 μL), and the plates were incubated at room temperature for 30 min, washed in 1% acetic acid, and allowed to dry. […] IC50 values were determined from three or more independent experiments using TableCurve (San Jose, Calif.).

CEM = experiment: 48-hour IC50 by MTS, CEM acute lymphoblastic leukemia cells; format: cell-based, human
Protocol: as §1
(§2) In a 96-well plate, compounds were pre-added as DMSO stocks (1% final) in triplicate to achieve final concentrations of 1 nM to 10 μM on a half log scale. DMSO and cell-free wells served as the live and dead control, respectively. […] IC50 values were determined from three or more independent experiments using TableCurve (San Jose, Calif.).

HL-60 = experiment: 48-hour IC50 by MTS, HL-60 acute promyelocytic leukemia cells; format: cell-based, human
Protocol: as §1, §2

Human Erythrocytes = experiment: Hemolysis assay using human erythrocytes; format: cell-based; conditions: hemolysis after 2 h
Protocol: FIG. 1. Hemolytic activity of (−)-agelastatins A-F and advanced intermediates. Compounds were tested at 333 μM and hemolysis was evaluated after 2 h. DMSO and water served as the negative and positive controls for hemolysis, respectively. Error bars represent standard deviation of the mean, n=3.
To prepare the erythrocytes, 0.1 mL of human blood was centrifuged (10,000 g, 2 min). The pellet was washed three times with saline (0.9% NaCl) via gentle resuspension and centrifugation (10,000 g, 2 min). Following the final wash, the erythrocytes were resuspended in 0.4 mL red blood cell (RBC) buffer (10 mM Na2HPO4, 150 mM NaCl, 1 mM MgCl2, pH 7.4).
DMSO stocks of compounds were added to 0.5 mL tubes in singlicate (1 μL, 3.3% DMSO final). The stocks were diluted with 19 μL RBC buffer. Positive control tubes contained DMSO in water, and negative control tubes contained DMSO in RBC buffer. A suspension of washed erythrocytes (10 μL) was added to each tube, and samples were incubated at 37° C. for 2 hours. Samples were centrifuged (10,000 g, 2 min), and the supernatant was transferred to a clear, sterile 384-well plate. The absorbance of the supernatants was measured at λ=540 nm, and percent hemolysis was calculated relative to the average absorbance values measured for the controls.

U-937 cells = experiment: Apoptosis in U-937 cells with Annexin V-FITC and propidium iodide; format: cell-based, human; conditions: 21 hours, flow cytometry
Protocol: FIG. 3. […] Analysis of phosphatidylserine exposure and propidium iodide inclusion at 21 hours in U-937 cells. Compounds were tested at indicated concentrations and STS was used as a positive control for apoptosis. Samples were analyzed by flow cytometry for the relative timing of phosphatidylserine exposure relative to PI inclusion. FITC=fluorescein isothiocyanate; PI=propidium iodide; STS=staurosporine.
DMSO stocks of compounds were added to a 24-well plate in singlicate (0.2% DMSO final). […] Following treatment, the cell suspensions were transferred to flow cytometry tubes and pelleted (500 g, 3 min). The media was removed by aspiration, and cells were resuspended in 200 μL AnnV binding buffer (10 mM HEPES, pH 7.4, 140 mM NaCl, 2.5 mM CaCl2) with 5 μg/mL PI and 1:90 dilution of AnnV. Samples were analyzed using flow cytometry.

tubulin dynamics = experiment: Tubulin microscopy with HeLa cells; format: cell-based, human; conditions: 16 hours, confocal microscopy
Protocol: HeLa cells were treated with compound for 16 hours, fixed, stained, and visualized using confocal microscopy.
Round, 1.5 mm coverslips (No. 1.5) were sterilized with ultraviolet light and placed in a 12-well plate. HeLa cells (100,000 cells/well) were added and allowed to adhere for eight hours. Compounds were then added as DMSO stocks to achieve a final DMSO concentration of 1%, and the plates were returned to the incubator for 16 hours.
Following incubation, the media was removed, and the coverslips were fixed with 0.5 mL Microtubulin Stabilizing Buffer (MTSB, 80 mM PIPES, pH 6.8, 1 mM MgCl2, 5 mM EGTA, 0.5% TX-100)+0.5% glutaraldehyde for 10 minutes at room temperature, after which the fixative was removed and the sample was quenched with the addition of 0.5 mL of freshly-prepared 1 mg/mL NaBH4 in PBS. After a 5 min incubation, the solution was removed by aspiration and the coverslips were washed with PBS.
Coverslips were transferred to parafilm-lined culture dishes (cell-side up), and 40 μL of 50 μg/mL RNase A in Antibody Diluting Solution (AbDil, PBS, pH 7.4, 0.2% TX-100, 2% BSA, 0.1% NaN3) with 1:50 dilution of anti-α-tubulin-FITC antibody was added to all samples. The samples were allowed to incubate at room temperature in the dark for 2.5 hours, after which the coverslips were washed three times with PBS+0.1% TX-100. […]

blood cancer cells = experiment: Activity against human blood cancer cell lines; format: cell-based
Protocol: Based on the surprising and exceptional potency of (−)-agelastatins A (1) and D (4) against U-937 cells relative to the other cell lines tested, five additional blood cancer cell lines were tested for their sensitivity to the agelastatin alkaloids. These cell lines spanned a variety of cancer types (CEM, acute lymphoblastic leukemia; Jurkat, acute T-cell leukemia; Daudi, Burkitt's lymphoma; HL-60, acute promyelocytic leukemia; CA46, Burkitt's lymphoma). After a 48-hour incubation, the ability of (−)-agelastatins A-F (1-6) to induce cell death was evaluated. […] The same trends in potency observed for the various agelastatins with the general cell panel (Table 3) were also observed.
In a 96-well plate, compounds were pre-added as DMSO stocks (1% final) in triplicate to achieve final concentrations of 1 nM to 10 μM on a half log scale. DMSO and cell-free wells served as the live and dead control, respectively. […] After 48 h, cell viability was assessed by adding 20 μL of a PMS/MTS solution (A. H. Cory, T. C. Owen, J. A. Barltrop, J. G. Cory, Cancer Commun., 1991, 3, 207) to each well, allowing the dye to develop at 37° C. until the live control had processed MTS, and reading the absorbance at λ=490 nm. IC50 values were determined from three or more independent experiments using TableCurve (San Jose, Calif.).

Compound: CN1C(=O)N[C@H]2[C@@H]3NC(=O)c4ccc(Br)n4[C@@H]3C[C@]21O [(−)-1, (−)-agelastatin A]
- IC50 (HeLa): 708 ± 90 nM
- IC50 (CEM): 20 ± 2 nM
- IC50 (HL-60): 138 ± 66 nM
- nonspecific hemolysis of red blood cells (Human Erythrocytes; compounds at 333 μM): none
- concentration without affecting normal red blood cells (Human Erythrocytes): > 333 µM
- apoptosis (phosphatidylserine exposure and propidium iodide inclusion) (U-937 cells): induced dose-dependent apoptosis
- effect on tubulin dynamics (tubulin dynamics): do not affect tubulin dynamics
- sensitivity of five additional blood cancer cell lines, in words (blood cancer cells; CEM, Jurkat, Daudi, HL-60, CA46, 48-hour incubation): remarkable sensitivity
- IC50 (blood cancer cells; range over blood cancer cell lines, read-out: potency against blood cancer cells): 20 to 190 nM
